Patent US7871978B2, “Bone tropic peptides” (University of Virginia Patent Foundation, priority 2004, dated 2011)

Key:
[1] = tested on: Membrane and cytosol fractions from bovine aortic endothelial cells; test: Affinity chromatography of BAEC fractions on immobilized peptide; assay type: binding
Procedure: (§1) Membrane and cytosol fractions from human bone marrow endothelial cells and bovine aortic endothelial cells were prepared and used to identify the components from within these fractions that bind to the peptides using affinity chromatography). […] Cell surface nucleolin is present at higher concentrations in actively dividing cells and is down regulated in cells when they become quiescent. Nucleolin is the apparent cell surface receptor of E-coli intimin-gamma. Cell bound intimin has been proposed to trigger a host cell response similar to the extension of filipodia when cells bind to laminin. […] Table 3 provides a summary of peptide-binding partners (putative receptors) identified by affinity chromatography of cell lysates.

[2] = tested on: bovine aortic endothelial cells (BAEC); test: Peptide binding to BAEC in culture (Avidin-FITC); parameters: key: ✓: Check marks indicate positive binding observed with FITC; −: a dash indicates a negative result
Procedure: (§2) For localization of peptide binding to cells and tissue sections, biotinylated peptides were synthesized. Fluorescein-isothiocyanate (FITC) labeled Avidin was used to localize the peptides on cells in culture and in tissue sections in vitro by epiluminescence microscopy. In addition, the biotinylated peptides were detected at concentrations as low as 1 μM in slot blots.
(§3) Bone marrow cells isolated from mouse femur were lifted with ethylenediaminetetraacetic acid (EDTA) and trypsin, resuspended, and allowed to attach on fibronectin-coated chamber slides for Avidin-FITC staining. […] The D1 cell is a multipotential mesenchymal stem-like line that was isolated from bone marrow and shown to have the characteristics of osteoprogenitor cells. This cell line has been well established and used successfully in several in vitro and in vivo studies in our laboratory. Peptide binding to human bone marrow endothelial cells (HBME) and bovine aortic endothelial cells (BAEC) in culture was also tested using the same procedure.

[3] = tested on: Bone marrow cells isolated from mouse femur; test: Peptide binding to bone marrow cells in culture (Avidin-FITC); parameters: key to Localization of peptide binding: Marrow (cells in culture): ✓: Check marks indicate positive binding observed with FITC; −: a dash indicates a negative result; conditions: FITC
Procedure: as §2, §3

[4] = tested on: bone and bone marrow; test: In vivo biopanning with 12-mer peptide phage display library; parameters: species or system BALB/c mice; conditions: for PERCENT FREQUENCY: phage eluted from bone and bone marrow; for PHAGE SEQUENCE FREQUENCY (number of times the sequence was found in a group of plaques): phage eluted from bone and bone marrow after repeated rounds
Text: The Ph.D.-12 Phage Display Peptide Library Kit (New England Biolabs, Beverly, Mass.) used in this study is based on a combinatorial library of random peptide 12-mers fused to a minor coat protein (pIII). […] The peptide is followed by a short spacer of four amino acid residues, the first three residues of which are glycine and the fourth of which is serine, and then the wild-type III sequence. The library consists of approximately 2.7×10^9 electroporated sequences, amplified once to yield approximately 55 copies of each sequence.
For in vivo biopanning, BALB/c mice 8 weeks of age were injected 3.4×10^10 pfu of phage into the heart. The animals were euthanized after 5 minutes, and the tissues (bone, bone marrow, kidney, liver, and spleen) were collected for analysis. The bound phage was eluted according the manufacturer's instructions. The eluted phage was titered, amplified, purified, and injected again at the same concentration.
The frequency of each peptide in bone and bone marrow was compared with its location in other tissues such as liver, kidney, lung, spleen, and brain. Thirteen unique peptide sequences eluted from bone and marrow were identified were identified by sequencing phage DNA. The peptides were synthesized using the polystyrene solid support on a Protein Technologies Symphony Multiple Channel Synthesizer.

[5] = tested on: bovine aortic endothelial cells; test: Effect of peptides on adherent bovine aortic endothelial cells on fibronectin or collagen; assay type: cell-based; conditions: for Effect on adherent BAEC (Experiment 1): 0.1M biotinylated peptide, 1 hour, cells adhered four hours on fibronectin or collagen
Procedure: Peptides from the phage display project were added to bovine aortic endothelial cells in culture. The endothelial cells had adhered to a surface coated with collagen or with fibronectin.
Experiment 1: Bovine aortic endothelial cells were plated on glass slides that were coated either fibronectin or collagen. The cell density was 5,000 cells/well. After the cells adhered for four hours, 0.1M of biotinylated peptide was added to each well. The following peptides were used: L1, L2, L5, L6, L7, L12, L13, L14, L19, R1, R3, and R8.
To perform this experiment, the media was removed and the cells were rinsed with 1×PBS plus 1% BSA three times. Peptides were diluted in 1×PBS plus 1% BSA, added to cells and incubated for 1 hour. The cells were rinsed three times with 1% BSA in PBS, and fixed with 2% parafomaldehyde. Aldehyde groups were blocked with 0.2 M HCl-glycine in PBS, the cells were rinsed three times with 1% BSA in PBS and ExtrAvidin-FITC (1:200 dilution) was added and incubated overnight at 4° C. The cells were rinsed three times with 1% BSA in PBS. The chambers and the gasket were removed from each slide, Vectashield was added, covered and viewed on a Nikon microscope. Images were acquired using a Coolsnap digital camera and Metavue software. […]
Experiment 3: The cells were adherent for about 6 hours and peptides at various concentrations were added to the cells. The concentrations of each of the peptides used in this experiment were: 0.1M, 0.01M, 0.001M and 0.0001M biotinylated peptide. The following peptides were tested: L1, L5, L6, L7, L13, L14, R1, R3, R8, DIP1 and PBS control (SEQ ID NOs:1, 3, 4, 5, 8, 9, 11, 13, 14, and 29).

[6] = tested on: Unicortical femoral defects; test: Peptide-mediated osteogenesis in cortical bone defects (Example 8); assay type: in vivo, Fisher 344 rats; conditions: 100 mM peptide in gelfoam, two weeks postoperatively; for Effectiveness at stimulating osteogenesis and cortical bone repair: versus gelfoam+PBS
Procedure: In an in vivo study, all 13 peptides at a concentration of 100 mM were tested for their ability to potentiate osteogenesis. A gelfoam cylinder 1.5 mm in diameter 2 mm in length was used as carrier for the peptides. Unicortical femoral defects 1.5 mm in diameter were created bilaterally in Fisher 344 rats; the left femoral defect was filled with gelfoam+PBS (Control), and the right femur with gelfoam+peptide. The samples were harvested and examined two weeks postoperatively. To examine the effect of peptide concentration on cortical bone regeneration, peptide L7 (SEQ ID NO:5) was used at 1, 5, and 20 mM. […] The time course of cortical bone repair with 20 mM L7 was examined at 5, 10, 15, and 20 days.

[7] = tested on: Membrane and cytosol fractions from human bone marrow endothelial cells; test: Affinity chromatography of HBME fractions on immobilized peptide; assay type: binding; parameters: key to Identification of binding partners by affinity chromatography: HBME: ✓: Check marks indicate positive binding observed with FITC; −: a dash indicates a negative result; conditions: cell lysates
Procedure: as §1
Peptide Affinity Column Chromatography: Peptides identified from the phage display experiments in mouse bone and bone marrow were synthesized with an additional three-residue glycine linker and an N-terminal lysine residue. The lysine residue was used to specifically link the peptides to a support. Cell membranes from BMECs were solubilized with triton X-100. The solubilized proteins were passed through the peptide affinity column (total volume, 500 μL) followed by extensive washes with buffer. Retained proteins were eluted either with 100 mM solution of the same peptide as that immobilized on the column or with a wash of 0.1 N HCl-Glycine, pH 2.2. The eluates were analyzed by SDS PAGE and proteins observed in the gels were identified by LC/MS/MS.

[8] = tested on: bone and marrow tissue sections (mouse femur, rib); test: Biotinylated peptide binding to bone/marrow tissue sections, Avidin-FITC fluorescence
Procedure: Methods: Four-week old Swiss Webster mice were euthanized; the femurs were excised and decalcified in 0.25M EDTA in PBS solution for 5 days, and washed in PBS for 24 hours. The femoral shafts were obtained by cutting off the proximal and distal ends of the femur. The femoral shafts were placed in Tissue-Tek O.C.T. Compound (Sukura Finetek, Torrance, Calif.) and frozen at −20° C. overnight. Sections were cut at 10 μm serially with a cryomicrotome, rinsed with 1% BSA in PBS three times. To block non-specific reaction sections were incubated with Avidin/Biotin Blocking Kit (Vector Laboratories, Inc. Burlingame, Calif.) according to the manufacturer's instructions. Following another rinse with PBS, 150 μl 10 mM solution of each biotinylated peptide (L1, L2, L7, R1, R8) was added to the slides and incubated for 1 hour at room temperature. In negative controls, only PBS was added. After rewashes with 1% BSA, 150 μl of 1:50,000 dilution of Avidin-FITC was added to each slide and incubated overnight at 4° C.
The sections were washed with 1% BSA in PBS and mounted with Vectashield (Vector Laboratories Inc., Burlingame, Calif.). Fluorescence was visualized using a Nikon eclipse E600 microscope (Nikon, Melville, N.Y.) equipped with a 535 nm wavelength fluorescein filter. Images were obtained using a Sony DKC-5000 digital camera (Sony Electronics Inc.) and processed with Adobe Photoshop software (Adobe Systems Incorporated, San Jose, Calif.).
as §2
Cryosections of decalcified femurs harvested from 4 week BALB/c mice were incubated with biotinylated peptide and Avidin-FITC. […] The distribution of fluorescence throughout the marrow was uneven. […] In control slides incubated with PBS without peptide, none of the cells could be detected by fluorescence (not shown). […]

[9] = tested on: prostate cancer cells; test: Chimeric tumors of killer-gene mesenchymal cells and prostate cancer cells treated with prodrug; assay type: in vivo, immune deficient rats
Procedure: Further experiments were carried out exploiting the phenomenon of mesenchymal cell homing to skeletal tissues. Cells transduced with thymidine kinase or cytidine deaminase, killer genes that can be expressed under the influence of a prodrug, lead to a cell kill effect on neighboring prostate cancer cells in a co-culture system in vitro. In vivo, the mesenchymal cells and prostate cancer cells were co-injected into subcutaneous sites in immune deficient rats. […] Therefore, a cell-based gene delivery system may be useful to pursue as potential therapy for metastatic cancer, particularly prostate cancer cells that have spread to bone.

[10] = BALB/c mouse decalcified femur cryosections, biotinylated peptide and Avidin-FITC
[11] = BALB/c mouse femur cryosections, biotinylated peptide
[12] = Swiss Webster mouse decalcified femur cryosections, 10 mM biotinylated peptide, 1 hour, Avidin-FITC
[13] = Swiss Webster mouse femur cryosections, 10 mM biotinylated peptide

Molecule	Binding partner from BAEC lysates ([1]; biotinylated peptide immobilized on avidin-agarose)	Identification of binding partners by affinity chromatography: BAEC ([1]; cell lysates)	Localization of peptide binding: BAEC [2]	Localization of peptide binding: Marrow (cells in culture) [3]	PERCENT FREQUENCY [4]	PHAGE SEQUENCE FREQUENCY (number of times the sequence was found in a group of plaques) [4]	Effect on adherent BAEC (Experiment 1) [5]	Effect on adherent BAEC (Experiment 3) ([5]; 0.1M peptide, cells adherent about 6 hours)	Effectiveness at stimulating osteogenesis and cortical bone repair [6]	Identification of binding partners by affinity chromatography: HBME [7]	Fluorescence detected in femur sections incubated with peptide [8, 10]	Cell shape preferentially recognized by peptide [8, 11]	Extent of marrow cells detected by fluorescence [8, 11]	Fluorescence detected in femur sections incubated with peptide [8, 12]	Cell shape preferentially recognized by peptide [8, 13]	Extent of marrow cells detected by fluorescence [8, 13]	Histological appearance of repair tissue in the defect [6]	Size of chimeric tumors ([9]; mesenchymal cells and prostate cancer cells co-injected subcutaneously, prodrug treatment)	Serum PSA levels ([9]; treated rats)
GLN-ARG-SER-TRP-THR-LEU-ASP-SER-ALA-LEU-SER-MET-GLY-GLY-GLY-SER (QRSWTLDSALSMGGGS; listed as Homo sapiens) [Peptide L12]	vimentin was found to bind	✓Vimentin	✓	✓	16.7%	5/30	the cells lifted and formed clusters that stained intensely	formed fewer clumps and considerably more debris	most effective at stimulating osteogenesis and cortical bone repair	−									
THR-MET-ARG-ASN-PRO-ILE-THR-SER-LEU-ILE-SER-VAL-GLY-GLY-GLY-SER (TMRNPITSLISVGGGS; listed as Homo sapiens) [Peptide L1]					28.6%	8/28	the cells lifted and formed clusters that stained intensely		least effective for cortical bone repair		Fluorescence was detected	recognized the round cells preferentially	did not detect as many cells	Fluorescence was detected	recognized the round cells preferentially	did not detect as many cells	a considerable amount of gelfoam remaining in the defects, with thinner and more loosely organized cortical bone		
LEU-LEU-ALA-ASP-THR-THR-HIS-HIS-ARG-PRO-TRP-THR-GLY-GLY-GLY-SER (LLADTTHHRPWTGGGS; listed as Homo sapiens) [Peptide L2]					32.1%	9/28	no effect, with results similar to PBS		least effective for cortical bone repair		Fluorescence was detected	recognized cells with mostly irregular shapes	did not detect as many cells	Fluorescence was detected	recognized cells with mostly irregular shapes	did not detect as many cells	a considerable amount of gelfoam remaining in the defects, with thinner and more loosely organized cortical bone		
Nc1nc2c(ncn2COC(CO)CO)c(=O)[nH]1 [gencyclovir]																		diminished in size	drop in serum PSA levels
